How the values were obtained:
Test in all cases: Test D pre-/postemergence plant response
Assay type in all cases: in vivo
[1] = test system: Italian ryegrass (Lolium multiflorum)
How it was run: (§1)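 Greenhouse assay: sown seeds in loam/sand received preemergence spray; simultaneously, emerged seedlings (1- to 4-leaf, 2–18 cm) got postemergence spray of the same surfactant-containing formulation. Rating at 14–21 days by visual comparison with controls, 0 = no effect to 100 = complete control.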

[2] = test system: Surinam grass (Brachiaria decumbens)
How it was run: as §1

[3] = test system: bluegrass (annual bluegrass, Poa annua)
How it was run: as §1

[4] = test system: chickweed (common chickweed, Stellaria media)
How it was run: as §1

[5] = test system: field bindweed (Convolvulus arvensis)
How it was run: as §1

[6] = test system: goosegrass (Eleusine indica)
How it was run: as §1

[7] = test system: groundsel (common groundsel, Senecio vulgaris); conditions: Postemergence
How it was run: as §1

[8] = test system: johnsongrass (Sorghum halepense)
How it was run: as §1

[9] = test system: kochia (Kochia scoparia)
How it was run: as §1

[10] = test system: large crabgrass (Digitaria sanguinalis)
How it was run: as §1

[11] = test system: morningglory (pitted morningglory, Ipomoea lacunosa)
How it was run: as §1

[12] = test system: naked crabgrass (Digitaria nuda)
How it was run: as §1

[13] = test system: nutsedge (purple nutsedge, Cyperus rotundus)
How it was run: as §1

[14] = test system: purslane (common purslane, Portulaca oleracea)
How it was run: as §1

[15] = test system: spanishneedles (Bidens bipinnata)
How it was run: as §1

[16] = Postemergence, 16 g ai/ha, scale 0 to 100
[17] = Postemergence, 31 g ai/ha, scale 0 to 100
[18] = Postemergence, 125 g ai/ha, scale 0 to 100 (0 no effect, 100 complete control)
[19] = Postemergence, 62 g ai/ha, scale 0 to 100 (0 no effect, 100 complete control)
[20] = Preemergence, 16 g ai/ha, scale 0 to 100, 0 no effect, 100 complete control
[21] = Preemergence, 31 g ai/ha, scale 0 to 100 (0 no effect, 100 complete control)
[22] = Preemergence, 125 g ai/ha, scale 0 to 100
[23] = Preemergence, 62 g ai/ha, scale 0 to 100

O=C1CCCC(O)=C1C(=O)c1cnc(-c2cccs2)n(-c2ccccc2)c1=O [Compound 66]
60: Plant response rating, Surinam Grass [2, 17] | Plant response rating, Groundsel ([7]; 31 g ai/ha, scale 0 to 100) | Plant response rating, Johnsongrass [8, 18] | Plant response rating, Purslane [14, 23] | Plant response rating, Spanishneedles [15, 21]
98: Plant response rating, Surinam Grass [2, 22] | Plant response rating, Chickweed [4, 22] | Plant response rating, Crabgrass, Large [10, 22]
20: Plant response rating, Chickweed [4, 21] | Plant response rating, Field Bindweed [5, 22] | Plant response rating, Johnsongrass [8, 17] | Plant response rating, Crabgrass, Large [10, 16] | Plant response rating, Nutsedge, Purple [13, 19]
25: Plant response rating, Kochia [9, 17] | Plant response rating, Kochia [9, 19] | Plant response rating, Crabgrass, Large [10, 17] | Plant response rating, Crabgrass, Large [10, 19] | Plant response rating, Crabgrass, Naked [12, 22]
40: Plant response rating, Kochia [9, 18]
95: Plant response rating, Chickweed [4, 18] | Plant response rating, Morningglory [11, 22] | Plant response rating, Spanishneedles [15, 22]
100: Plant response rating, Purslane [14, 22]
90: Plant response rating, Surinam Grass [2, 18] | Plant response rating, Surinam Grass [2, 19] | Plant response rating, Chickweed [4, 23] | Plant response rating, Kochia [9, 22] | Plant response rating, Morningglory [11, 18] | Plant response rating, Morningglory [11, 19] | Plant response rating, Morningglory [11, 23]
5: Plant response rating, Nutsedge, Purple [13, 17]
65: Plant response rating, Goosegrass [6, 19] | Plant response rating, Kochia [9, 21] | Plant response rating, Kochia [9, 23] | Plant response rating, Morningglory [11, 16] | Plant response rating, Crabgrass, Naked [12, 19] | Plant response rating, Spanishneedles [15, 16]
50: Plant response rating, Goosegrass [6, 16] | Plant response rating, Goosegrass [6, 17] | Plant response rating, Goosegrass [6, 22] | Plant response rating, Johnsongrass [8, 19] | Plant response rating, Crabgrass, Large [10, 23] | Plant response rating, Crabgrass, Naked [12, 17] | Plant response rating, Purslane [14, 17]
15: Plant response rating, Ryegrass, Italian [1, 18] | Plant response rating, Crabgrass, Large [10, 20]
30: Plant response rating, Goosegrass [6, 23] | Plant response rating, Johnsongrass [8, 22] | Plant response rating, Crabgrass, Large [10, 21] | Plant response rating, Nutsedge, Purple [13, 18]
70: Plant response rating, Morningglory [11, 17] | Plant response rating, Crabgrass, Naked [12, 18] | Plant response rating, Nutsedge, Purple [13, 22] | Plant response rating, Spanishneedles [15, 17]
35: Plant response rating, Chickweed [4, 19] | Plant response rating, Crabgrass, Large [10, 18] | Plant response rating, Nutsedge, Purple [13, 23]
80: Plant response rating, Surinam Grass [2, 21] | Plant response rating, Groundsel ([7]; 125 g ai/ha, scale 0 to 100 (0 no effect, 100 complete control)) | Plant response rating, Groundsel ([7]; 62 g ai/ha, scale 0 to 100 (0 no effect, 100 complete control)) | Plant response rating, Spanishneedles [15, 18] | Plant response rating, Spanishneedles [15, 19]
75: Plant response rating, Goosegrass [6, 18] | Plant response rating, Purslane [14, 18] | Plant response rating, Purslane [14, 19]
10: Plant response rating, Crabgrass, Naked [12, 23]
0: Plant response rating, Ryegrass, Italian [1, 16] | Plant response rating, Ryegrass, Italian [1, 17] | Plant response rating, Ryegrass, Italian [1, 19] | Plant response rating, Ryegrass, Italian [1, 20] | Plant response rating, Ryegrass, Italian [1, 21] | Plant response rating, Ryegrass, Italian [1, 22] | Plant response rating, Surinam Grass [2, 20] | Plant response rating, Bluegrass [3, 16] | Plant response rating, Bluegrass ([3]; Postemergence, 31 g ai/ha, scale 0 to 100 (0 no effect, 100 complete control)) | Plant response rating, Bluegrass [3, 18] | Plant response rating, Bluegrass [3, 19] | Plant response rating, Bluegrass [3, 20] | Plant response rating, Bluegrass [3, 21] | Plant response rating, Bluegrass [3, 23] | Plant response rating, Bluegrass [3, 22] | Plant response rating, Chickweed [4, 20] | Plant response rating, Field Bindweed [5, 16] | Plant response rating, Field Bindweed [5, 17] | Plant response rating, Field Bindweed [5, 18] | Plant response rating, Field Bindweed [5, 19] | Plant response rating, Field Bindweed [5, 20] | Plant response rating, Field Bindweed [5, 21] | Plant response rating, Field Bindweed [5, 23] | Plant response rating, Goosegrass [6, 20] | Plant response rating, Goosegrass [6, 21] | Plant response rating, Johnsongrass [8, 16] | Plant response rating, Johnsongrass [8, 20] | Plant response rating, Johnsongrass [8, 21] | Plant response rating, Johnsongrass [8, 23] | Plant response rating, Kochia [9, 20] | Plant response rating, Morningglory [11, 20] | Plant response rating, Morningglory [11, 21] | Plant response rating, Crabgrass, Naked [12, 20] | Plant response rating, Crabgrass, Naked [12, 21] | Plant response rating, Nutsedge, Purple [13, 16] | Plant response rating, Nutsedge, Purple [13, 20] | Plant response rating, Nutsedge, Purple [13, 21] | Plant response rating, Purslane [14, 20] | Plant response rating, Purslane [14, 21] | Plant response rating, Spanishneedles [15, 20]

From patent US8952024B2, “Herbicidal pyrimidone derivatives” (E I du Pont de Nemours and Company, priority 2009, dated 2015)
